Laboratory results as given in US8822451B2, “Modulators of ATP-binding cassette transporters” (Vertex Pharmaceuticals Incorporated, priority 2005, dated 2014).

Target: T1, […]F508-CFTR (Homo sapiens, UniProt P13569, DEL508-508)
T1 construct: expressed in transfected cells
Experiment: Assay results of Table 3: ΔF508-CFTR modulation, membrane potential optical assay (assay format not stated)
Type: cell-based
Conditions: NIH3T3 mouse fibroblasts stably expressing […]F508-CFTR (optical assays); for Efficacy: efficacy range; for EC50: potency range
Text: A. Membrane Potential Optical Methods for Assaying […]F508-CFTR Modulation Properties of Compounds
The optical membrane potential assay utilized voltage-sensitive FRET sensors described by Gonzalez and Tsien (See, Gonzalez, J. E. and R. Y. Tsien (1995) “Voltage sensing by fluorescence resonance energy transfer in single cells” Biophys J 69(4): 1272-80, and Gonzalez, J. E. and R. Y. Tsien (1997) “Improved indicators of cell membrane potential that use fluorescence resonance energy transfer” Chem Biol 4(4): 269-77) in combination with instrumentation for measuring fluorescence changes such as the Voltage/Ion Probe Reader (VIPR) (See, Gonzalez, J. E., K. Oades, et al. (1999) “Cell-based assays and instrumentation for screening ion-channel targets” Drug Discov Today 4(9): 431-439).
These voltage sensitive assays are based on the change in fluorescence resonant energy transfer (FRET) between the membrane-soluble, voltage-sensitive dye, DiSBAC2(3), and a fluorescent phospholipid, CC2-DMPE, which is attached to the outer leaflet of the plasma membrane and acts as a FRET donor. Changes in membrane potential (Vm) cause the negatively charged DiSBAC2(3) to redistribute across the plasma membrane and the amount of energy transfer from CC2-DMPE changes accordingly. The changes in fluorescence emission were monitored using VIPR™ II, which is an integrated liquid handler and fluorescent detector designed to conduct cell-based screens in 96- or 384-well microtiter plates.
To identify small molecules that correct the trafficking defect associated with ΔF508-CFTR; a single-addition HTS assay format was developed. The cells were incubated in serum-free medium for 16 hrs at 37° C. in the presence or absence (negative control) of test compound. As a positive control, cells plated in 384-well plates were incubated for 16 hrs at 27° C. to “temperature-correct” […]F508-CFTR. The cells were subsequently rinsed 3× with Krebs Ringers solution and loaded with the voltage-sensitive dyes. To activate […]F508-CFTR, 10 µM forskolin and the CFTR potentiator, genistein (20 µM), were added along with Cl^−-free medium to each well. The addition of Cl^−-free medium promoted Cl^− efflux in response to […]F508-CFTR activation and the resulting membrane depolarization was optically monitored using the FRET-based voltage-sensor dyes.
To identify potentiators of […]F508-CFTR, a double-addition HTS assay format was developed. During the first addition, a Cl^−-free medium with or without test compound was added to each well. After 22 sec, a second addition of Cl^−-free medium containing 2-10 µM forskolin was added to activate […]F508-CFTR. The extracellular Cl^− concentration following both additions was 28 mM, which promoted Cl^− efflux in response to […]F508-CFTR activation and the resulting membrane depolarization was optically monitored using the FRET-based voltage-sensor dyes.
Bath Solution #1: (in mM) NaCl 160, KCl 4.5, CaCl2 2, MgCl2 1, HEPES 10, pH 7.4 with NaOH.
Chloride-free bath solution: Chloride salts in Bath Solution #1 are substituted with gluconate salts.
CC2-DMPE: Prepared as a 10 mM stock solution in DMSO and stored at −20° C.
DiSBAC2(3): Prepared as a 10 mM stock in DMSO and stored at −20° C.
NIH3T3 mouse fibroblasts stably expressing […]F508-CFTR are used for optical measurements of membrane potential. The cells are maintained at 37° C. in 5% CO2 and 90% humidity in Dulbecco's modified Eagle's medium supplemented with 2 mM glutamine, 10% fetal bovine serum, 1× NEAA, […]-ME, 1× pen/strep, and 25 mM HEPES in 175 cm^2 culture flasks. For all optical assays, the cells were seeded at 30,000/well in 384-well matrigel-coated plates and cultured for 2 hrs at 37° C. before culturing at 27° C. for 24 hrs for the potentiator assay. For the correction assays, the cells are cultured at 27° C. or 37° C. with and without compounds for 16-24 hoursB.

T1 sequence (P13569 with tags, fused parts or gaps DEL508-508): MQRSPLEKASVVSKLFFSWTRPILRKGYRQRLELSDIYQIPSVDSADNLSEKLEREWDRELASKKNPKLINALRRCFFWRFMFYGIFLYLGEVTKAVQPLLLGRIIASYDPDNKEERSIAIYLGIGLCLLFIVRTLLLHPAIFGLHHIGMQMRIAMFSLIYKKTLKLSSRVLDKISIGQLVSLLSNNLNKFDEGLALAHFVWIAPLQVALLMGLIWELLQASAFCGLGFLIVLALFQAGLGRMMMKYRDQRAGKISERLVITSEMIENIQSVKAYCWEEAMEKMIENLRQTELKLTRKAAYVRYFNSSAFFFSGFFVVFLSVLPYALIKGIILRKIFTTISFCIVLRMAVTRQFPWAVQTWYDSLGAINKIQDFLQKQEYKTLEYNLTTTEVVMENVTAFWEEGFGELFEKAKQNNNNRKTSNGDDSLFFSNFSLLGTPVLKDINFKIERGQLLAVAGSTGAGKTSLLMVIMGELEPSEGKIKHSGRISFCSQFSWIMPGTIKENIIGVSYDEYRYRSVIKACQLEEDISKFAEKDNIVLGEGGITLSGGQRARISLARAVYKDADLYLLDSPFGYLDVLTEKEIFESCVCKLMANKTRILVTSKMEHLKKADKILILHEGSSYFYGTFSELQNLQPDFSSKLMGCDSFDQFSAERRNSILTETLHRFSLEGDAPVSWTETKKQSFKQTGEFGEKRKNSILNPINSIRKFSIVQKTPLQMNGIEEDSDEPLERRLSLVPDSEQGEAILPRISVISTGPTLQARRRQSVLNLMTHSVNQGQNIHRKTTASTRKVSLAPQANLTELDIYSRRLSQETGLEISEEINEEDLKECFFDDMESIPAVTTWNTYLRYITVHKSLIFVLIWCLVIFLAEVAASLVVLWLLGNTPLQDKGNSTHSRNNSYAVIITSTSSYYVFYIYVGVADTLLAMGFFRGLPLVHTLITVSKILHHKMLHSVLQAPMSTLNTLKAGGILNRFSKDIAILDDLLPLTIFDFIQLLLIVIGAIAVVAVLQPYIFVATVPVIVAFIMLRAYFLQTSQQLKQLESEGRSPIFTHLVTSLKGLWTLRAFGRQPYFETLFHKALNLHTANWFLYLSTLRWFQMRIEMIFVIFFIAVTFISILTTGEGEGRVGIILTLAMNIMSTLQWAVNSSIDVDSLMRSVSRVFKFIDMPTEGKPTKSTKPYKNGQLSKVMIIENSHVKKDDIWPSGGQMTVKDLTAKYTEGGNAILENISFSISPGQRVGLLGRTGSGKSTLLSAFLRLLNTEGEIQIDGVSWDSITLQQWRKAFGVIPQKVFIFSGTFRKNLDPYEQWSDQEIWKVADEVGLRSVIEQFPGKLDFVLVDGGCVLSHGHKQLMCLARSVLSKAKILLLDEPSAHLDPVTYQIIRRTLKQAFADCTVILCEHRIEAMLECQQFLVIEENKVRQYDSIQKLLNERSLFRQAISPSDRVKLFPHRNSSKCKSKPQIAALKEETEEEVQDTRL

Structure (SMILES)	Efficacy	EC50 [µM]
CC(=O)C1(c2ccccc2)CCN(c2nc(C(N)=O)cc(-c3ccccc3)n2)CC1 [Compound 45]	++ (++ corresponds to Efficacy between 100 and 50)	1 to 5
NC(=O)c1cc(-c2ccccc2)nc(N2CC=CCC2)n1 [Compound 46]	+++ (+++ corresponds to Efficacy greater than 100)	1 to 5
CCN(CC)c1nc(C(=O)NC)cc(-c2ccccc2)n1 [Compound 47]	+++ (+++ corresponds to Efficacy greater than 100)	1 to 5
C=CCNc1nc(C(N)=O)cc(-c2cccc(OC)c2)n1 [Compound 48]	++ (++ corresponds to Efficacy between 100 and 50)	> 5
COc1cc2c(cc1OC)CN(c1nc(C(N)=O)cc(-c3ccccc3)n1)CC2 [Compound 49]	++ (++ corresponds to Efficacy between 100 and 50)	> 5
CCN(Cc1ccccc1)c1nc(C(N)=O)cc(-c2ccccc2)n1 [Compound 50]	+++ (+++ corresponds to Efficacy greater than 100)	< 1
CC(C)CNc1nc(C(N)=O)cc(-c2ccccc2)n1 [Compound 51]	++ (++ corresponds to Efficacy between 100 and 50)	> 5
CCCCN(Cc1ccccc1)c1nc(C(N)=O)cc(-c2ccccc2)n1 [Compound 52]	++ (++ corresponds to Efficacy between 100 and 50)	1 to 5
NC(=O)c1cc(-c2ccccc2)nc(N2CC=C(c3ccccc3)CC2)n1 [Compound 53]	++ (++ corresponds to Efficacy between 100 and 50)	> 5
NC(=O)c1cc(-c2ccccc2)nc(N2CCc3ccccc3C2)n1 [Compound 54]	++ (++ corresponds to Efficacy between 100 and 50)	1 to 5
CCN(CC)c1nc(C(N)=O)cc(-c2ccc(C(C)C)cc2)n1 [Compound 55]	++ (++ corresponds to Efficacy between 100 and 50)	< 1
CCN(CC)c1nc(C(N)=O)cc(-c2cccc(C)c2)n1 [Compound 56]	+++ (+++ corresponds to Efficacy greater than 100)	1 to 5
NC(=O)c1cc(-c2ccccc2)nc(-n2cccn2)n1 [Compound 57]	+ (+ corresponds to Efficacy less than 50)	> 5
NC(=O)c1cc(-c2ccccc2)nc(-n2ccnc2)n1 [Compound 58]	+ (+ corresponds to Efficacy less than 50)	> 5
CCOC(=O)C1CCCN(c2nc(C(N)=O)cc(-c3ccccc3)n2)C1 (centres unmarked) [Compound 59]	+ (+ corresponds to Efficacy less than 50)	1 to 5
NC(=O)c1cc(-c2ccccc2)nc(N2CCC(C(=O)c3ccc(F)cc3)CC2)n1 [Compound 60]	++ (++ corresponds to Efficacy between 100 and 50)	> 5
CCN(CC)c1nc(C(N)=O)cc(-c2ccccc2C)n1 [Compound 61]	++ (++ corresponds to Efficacy between 100 and 50)	1 to 5
CCN(CC)c1nc(C(N)=O)cc(-c2cccc(NC(C)=O)c2)n1 [Compound 62]	++ (++ corresponds to Efficacy between 100 and 50)	> 5
CN(CCc1c[nH]c2ccccc12)c1nc(C(N)=O)cc(-c2ccccc2)n1 [Compound 63]	++ (++ corresponds to Efficacy between 100 and 50)	1 to 5
COc1ccc(-c2cc(C(N)=O)nc(N3CCCCC3)n2)c(OC)c1 [Compound 65]	++ (++ corresponds to Efficacy between 100 and 50)	> 5
CCN(CC)c1nc(C(N)=O)cc(-c2cc(C)cs2)n1 [Compound 66]	+++ (+++ corresponds to Efficacy greater than 100)	< 1
CCN(CC)c1nc(C(N)=O)cc(-c2ccc(F)cc2)n1 [Compound 67]	+++ (+++ corresponds to Efficacy greater than 100)	1 to 5

Structure (SMILES)	Efficacy	EC50 [µM]
NC(=O)c1cc(-c2ccccc2)nc(N2CCCCCC2)n1 [Compound 68]	++ (++ corresponds to Efficacy between 100 and 50)	1 to 5
C=CCN(CC=C)c1nc(C(N)=O)cc(-c2ccccc2)n1 [Compound 69]	+++ (+++ corresponds to Efficacy greater than 100)	1 to 5
Cc1csc(-c2cc(C(N)=O)nc(N3CCCCC3)n2)c1 [Compound 70]	+ (+ corresponds to Efficacy less than 50)	1 to 5
CC(C)(C)Nc1nc(C(N)=O)cc(-c2ccccc2)n1 [Compound 71]	++ (++ corresponds to Efficacy between 100 and 50)	> 5
NC(=O)c1cc(-c2ccccc2C(F)(F)F)nc(N2CCCCC2)n1 [Compound 72]	++ (++ corresponds to Efficacy between 100 and 50)	1 to 5
CCCC1CCN(c2nc(C(N)=O)cc(-c3ccccc3)n2)CC1 [Compound 73]	+ (+ corresponds to Efficacy less than 50)	1 to 5
CCN(CC)c1nc(C(N)=O)cc(-c2cccc(OC)c2)n1 [Compound 74]	+++ (+++ corresponds to Efficacy greater than 100)	1 to 5
CCN(CC)c1nc(C(N)=O)cc(-c2cccc(C(F)(F)F)c2)n1 [Compound 75]	++ (++ corresponds to Efficacy between 100 and 50)	< 1
CCN(CC)c1nc(C(N)=O)cc(-c2cc(C(C)C)ccc2OC)n1 [Compound 76]	+++ (+++ corresponds to Efficacy greater than 100)	< 1
COc1cccc(-c2cc(C(N)=O)nc(N(C)C)n2)c1 [Compound 77]	+ (+ corresponds to Efficacy less than 50)	> 5
COc1ccc(-c2cc(C(N)=O)nc(N3CCCCCC3)n2)cc1 [Compound 78]	++ (++ corresponds to Efficacy between 100 and 50)	1 to 5
NC(=O)c1cc(-c2ccccc2)nc(N2CC=CC2)n1 [Compound 79]	+++ (+++ corresponds to Efficacy greater than 100)	1 to 5
COc1cccc(-c2cc(C(N)=O)nc(NCC3CCCO3)n2)c1 (centres unmarked) [Compound 80]	+ (+ corresponds to Efficacy less than 50)	> 5
CCN(CC)c1nc(C(N)=O)cc(-c2cc3ccccc3s2)n1 [Compound 81]	+++ (+++ corresponds to Efficacy greater than 100)	1 to 5
CCN(CC)c1nc(C(N)=O)cc(-c2ccc(OC)c(OC)c2)n1 [Compound 82]	++ (++ corresponds to Efficacy between 100 and 50)	< 1
CN(CC#N)c1nc(C(N)=O)cc(-c2ccccc2)n1 [Compound 83]	+ (+ corresponds to Efficacy less than 50)	> 5
CCN(CC)c1nc(C(N)=O)cc(-c2cccc(OC(F)(F)F)c2)n1 [Compound 84]	++ (++ corresponds to Efficacy between 100 and 50)	< 1
CCN(CC)c1nc(C(N)=O)cc(-c2cccc(C(=O)OC(C)C)c2)n1 [Compound 85]	++ (++ corresponds to Efficacy between 100 and 50)	< 1
NC(=O)c1cc(-c2ccccc2)nc(N2CCCCCCC2)n1 [Compound 86]	++ (++ corresponds to Efficacy between 100 and 50)	< 1
CCCN(CC1CC1)c1nc(C(N)=O)cc(-c2ccccc2)n1 [Compound 87]	++ (++ corresponds to Efficacy between 100 and 50)	1 to 5
COCCCNc1nc(C(N)=O)cc(-c2cccc(OC)c2)n1 [Compound 88]	+ (+ corresponds to Efficacy less than 50)	> 5
